Experiments:
[1] = test system: late watergrass; assay: Test Example 1: herbicidal activity, application before weed generation under submerged conditions (Table 16, symbol A); format: in vivo, late watergrass (Echinochloa oryzicola)
Procedure, shortened: (§1)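 Emulsion formulation, water-diluted to set dose, was put onto the flooded surface (4 cm depth, alluvial soil) the same day weeds were sown and 2.5-leaf rice transplanted. After 3 weeks at 25-30 °C under glass, each species was rated 0 (≤5% kill) to 5 (≥90% kill).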

[2] = test system: Japanese bulrush; assay: Test Example 1: herbicidal activity, application before weed generation under submerged conditions (Table 16, symbol B); format: in vivo, Japanese bulrush (Schoenoplectus juncoides)
Procedure, shortened: as §1

[3] = test system: oval-leafed pondweed; assay: Test Example 1: herbicidal activity, application before weed generation under submerged conditions (Table 16, symbol C); format: in vivo, oval-leafed pondweed (Monochoria vaginalis)
Procedure, shortened: as §1

[4] = test system: late watergrass; assay: Test Example 2: herbicidal activity, application during weed generation under submerged conditions (Table 17, symbol A); format: in vivo, late watergrass (Echinochloa oryzicola); conditions: for herbicidal effect rating, A: late watergrass: AAH 320 g/ha, application during weed generation, submerged conditions; for herbicidal effect grade, A: late watergrass: application during weed generation under submerged conditions
Procedure, shortened: (§2)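 Wagner pot, alluvial soil, 4 cm flood; mixed sowing of all species; greenhouse 25° C.–30° C. Emulsifiable formulation, water-diluted to predetermined dose, applied to paddy water at 1–2 leaf stage. Effect rated at 3 wk using the earlier test's scoring criteria.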

[5] = test system: Japanese bulrush; assay: Test Example 2: herbicidal activity, application during weed generation under submerged conditions (Table 17, symbol B); format: in vivo, Japanese bulrush (Schoenoplectus juncoides); conditions: for herbicidal effect rating, B: Japanese bulrush: AAH 320 g/ha, application during weed generation, submerged conditions; for herbicidal effect grade, B: Japanese bulrush: application during weed generation under submerged conditions
Procedure, shortened: as §2

[6] = test system: oval-leafed pondweed; assay: Test Example 2: herbicidal activity, application during weed generation under submerged conditions (Table 17, symbol C); format: in vivo, oval-leafed pondweed (Monochoria vaginalis); conditions: for herbicidal effect rating, C: oval-leafed pondweed: AAH 320 g/ha, application during weed generation, submerged conditions; for herbicidal effect grade, C: oval-leafed pondweed: application during weed generation under submerged conditions
Procedure, shortened: as §2

[7] = test system: barnyard grass; assay: Test Example 3: herbicidal effect by foliage application, Wagner pot (Table 18, symbol H); format: in vivo, barnyard grass (Echinochloa crus-galli); conditions: for herbicidal effect on barnyard grass (H): 320 g/ha
Procedure, shortened: (§3)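 Plants were sown in alluvial soil held under 0.1–0.5 cm standing water and grown 14 days in a greenhouse at 25–30 °C. An emulsifiable formulation, water-diluted to the set dose, was then sprayed onto the foliage, and effects were scored three weeks later using previously defined criteria.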

[8] = test system: Chinese sprangletop; assay: Test Example 3: herbicidal effect by foliage application, Wagner pot (Table 18, symbol D); format: in vivo, chinese sprangletop (Leptochloa chinensis); conditions: for herbicidal effect on Chinese sprangletop (D): 320 g/ha
Procedure, shortened: as §3

[9] = test system: rice flat sedge; assay: Test Example 3: herbicidal effect by foliage application, Wagner pot (Table 18, symbol E); format: in vivo, rice flat sedge (Cyperus iria); conditions: for herbicidal effect on rice flat sedge (E): 320 g/ha
Procedure, shortened: as §3

[10] = test system: southern crabgrass; assay: Test Example 5: herbicidal effect by foliage application, plastic box (Table 20, symbol F); format: in vivo, southern crabgrass (Digitaria ciliaris); conditions: foliage application, 320 g/ha, three weeks after application
Procedure, shortened: (§4)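 Foliar spray test: emulsion formulation diluted in water to a set application rate, sprayed onto 14-day-old plants raised in diluvial soil at 25° C to 30° C under glass. Both herbicidal effect and crop effect rated visually three weeks later.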

[11] = test system: green foxtail; assay: Test Example 5: herbicidal effect by foliage application, plastic box (Table 20, symbol G); format: in vivo, green foxtail (Setaria viridis); conditions: foliage application, 320 g/ha, three weeks after application
Procedure, shortened: as §4

[12] = test system: barnyard grass; assay: Test Example 5: herbicidal effect by foliage application, plastic box (Table 20, symbol H); format: in vivo, barnyard grass (Echinochloa crus-galli); conditions: foliage application, 320 g/ha, three weeks after application
Procedure, shortened: as §4

[13] = test system: wild oat; assay: Test Example 5: herbicidal effect by foliage application, plastic box (Table 20, symbol I); format: in vivo, wild oat (Avena fatua); conditions: foliage application, 320 g/ha, three weeks after application
Procedure, shortened: as §4

[14] = test system: blackgrass; assay: Test Example 5: herbicidal effect by foliage application, plastic box (Table 20, symbol J); format: in vivo, blackgrass (Alopecurus myosuroides); conditions: foliage application, 320 g/ha, three weeks after application
Procedure, shortened: as §4

[15] = test system: Italian ryegrass; assay: Test Example 5: herbicidal effect by foliage application, plastic box (Table 20, symbol K); format: in vivo, Italian ryegrass (Lolium multiflorum); conditions: foliage application, 320 g/ha, three weeks after application
Procedure, shortened: as §4

[16] = test system: windgrass; assay: Test Example 5: herbicidal effect by foliage application, plastic box (Table 20, symbol L); format: in vivo, windgrass (Apera spica-venti); conditions: foliage application, 320 g/ha, three weeks after application
Procedure, shortened: as §4

[17] = test system: velvetleaf; assay: Test Example 5: herbicidal effect by foliage application, plastic box (Table 20, symbol M); format: in vivo, velvetleaf (Abutilon theophrasti); conditions: foliage application, 320 g/ha, three weeks after application
Procedure, shortened: as §4

[18] = test system: lambsquarters; assay: Test Example 5: herbicidal effect by foliage application, plastic box (Table 20, symbol O); format: in vivo, lambsquarters (Chenopodium album); conditions: foliage application, 320 g/ha, three weeks after application
Procedure, shortened: as §4

[19] = test system: persian speedwell; assay: Test Example 5: herbicidal effect by foliage application, plastic box (Table 20, symbol R); format: in vivo, Persian speedwell (Veronica persica); conditions: foliage application, 320 g/ha, three weeks after application
Procedure, shortened: as §4

[20] = amount of applied herbicide 320 g/ha
[21] = amount of applied herbicide 438 g/ha

| SMILES | Herbicidal effect, A: late watergrass [1, 20] | Herbicidal effect, B: Japanese bulrush [2, 20] | Herbicidal effect, C: oval-leafed pondweed [3, 20] | herbicidal effect rating, A: late watergrass [4] | herbicidal effect rating, B: Japanese bulrush [5] | herbicidal effect rating, C: oval-leafed pondweed [6] | herbicidal effect on barnyard grass (H) [7] | herbicidal effect on Chinese sprangletop (D) [8] | herbicidal effect on rice flat sedge (E) [9] | herbicidal effect on southern crabgrass (F) [10] | herbicidal effect on green foxtail (G) [11] | herbicidal effect on barnyard grass (H) [12] | herbicidal effect on wild oat (I) [13] | herbicidal effect on blackgrass (J) [14] | herbicidal effect on Italian ryegrass (K) [15] | herbicidal effect on windgrass (L) [16] | herbicidal effect on velvetleaf (M) [17] | herbicidal effect on lambsquarters (O) [18] | herbicidal effect on persian speedwell (R) [19] | also measured |
| --- | --- | --- | --- | --- | --- | --- | --- | --- | --- | --- | --- | --- | --- | --- | --- | --- | --- | --- | --- | --- |
| CCCC(=O)Oc1c(C)nn(C)c(=O)c1-c1c(-c2ccccc2OC)sc2cc(C)c(C)cc12 [5-091] | 3 (Herbicidal rate of 40% or more and less than 70%) | 3 (Herbicidal rate of 40% or more and less than 70%) | 3 (Herbicidal rate of 40% or more and less than 70%) | 3 (Herbicidal rate of 40% or more and less than 70%) | 2 (Herbicidal rate of 20% or more and less than 40%) | 3 (Herbicidal rate of 40% or more and less than 70%) | 4 (Herbicidal rate of 70% or more and less than 90%) | 4 (Herbicidal rate of 70% or more and less than 90%) | 3 (Herbicidal rate of 40% or more and less than 70%) | 2 (Herbicidal rate of 20% or more and less than 40%) | 3 (Herbicidal rate of 40% or more and less than 70%) | 3 (Herbicidal rate of 40% or more and less than 70%) | 0 (Herbicidal rate of 5% or less (almost no effect)) | 4 (Herbicidal rate of 70% or more and less than 90%) | 4 (Herbicidal rate of 70% or more and less than 90%) | 4 (Herbicidal rate of 70% or more and less than 90%) | 4 (Herbicidal rate of 70% or more and less than 90%) | 3 (Herbicidal rate of 40% or more and less than 70%) | 3 (Herbicidal rate of 40% or more and less than 70%) | – |
| CCCC(=O)Oc1c(C)nn(C)c(=O)c1-c1c(-c2ccc(F)cc2OC)sc2cc(C)c(C)cc12 [5-102] | 4 (Herbicidal rate of 70% or more and less than 90%) | 3 (Herbicidal rate of 40% or more and less than 70%) | 2 (Herbicidal rate of 20% or more and less than 40%) | 3 (Herbicidal rate of 40% or more and less than 70%) | 3 (Herbicidal rate of 40% or more and less than 70%) | 2 (Herbicidal rate of 20% or more and less than 40%) | 4 (Herbicidal rate of 70% or more and less than 90%) | 4 (Herbicidal rate of 70% or more and less than 90%) | 3 (Herbicidal rate of 40% or more and less than 70%) | 1 (Herbicidal rate of 5% or more and less than 20%) | 0 (Herbicidal rate of 5% or less (almost no effect)) | 1 (Herbicidal rate of 5% or more and less than 20%) | 0 (Herbicidal rate of 5% or less (almost no effect)) | 3 (Herbicidal rate of 40% or more and less than 70%) | 3 (Herbicidal rate of 40% or more and less than 70%) | 2 (Herbicidal rate of 20% or more and less than 40%) | 3 (Herbicidal rate of 40% or more and less than 70%) | 3 (Herbicidal rate of 40% or more and less than 70%) | 3 (Herbicidal rate of 40% or more and less than 70%) | – |
| Cc1nn(C)c(=O)c(-c2c(-c3ccc(OC(F)(F)F)cc3)sc3cc(Cl)c(Cl)cc23)c1O [5-107] | 3 (Herbicidal rate of 40% or more and less than 70%) | 0 (Herbicidal rate of 5% or less (almost no effect)) | 0 (Herbicidal rate of 5% or less (almost no effect)) | 3 (Herbicidal rate of 40% or more and less than 70%) | 3 (Herbicidal rate of 40% or more and less than 70%) | 3 (Herbicidal rate of 40% or more and less than 70%) | 3 (Herbicidal rate of 40% or more and less than 70%) | 0 (Herbicidal rate of 5% or less (almost no effect)) | 0 (Herbicidal rate of 5% or less (almost no effect)) | 2 (Herbicidal rate of 20% or more and less than 40%) | 2 (Herbicidal rate of 20% or more and less than 40%) | 3 (Herbicidal rate of 40% or more and less than 70%) | – | – | – | – | 3 (Herbicidal rate of 40% or more and less than 70%) | 4 (Herbicidal rate of 70% or more and less than 90%) | – | – |
| CCCC(=O)Oc1c(C)nn(C)c(=O)c1-c1c(-c2ccc(OCC(C)C)cc2)oc2ccc(C)cc12 [9-052] | 5 (Herbicidal rate of 90% or more (almost completely withered)) | 5 (Herbicidal rate of 90% or more (almost completely withered)) | 4 (Herbicidal rate of 70% or more and less than 90%) | – | – | – | – | – | – | – | – | – | – | – | – | – | – | – | – | herbicidal effect grade, A: late watergrass [4, 20]: 3 (Herbicidal rate of 40% or more and less than 70%); herbicidal effect grade, B: Japanese bulrush [5, 20]: 3 (Herbicidal rate of 40% or more and less than 70%); herbicidal effect grade, C: oval-leafed pondweed [6, 20]: 4 (Herbicidal rate of 70% or more and less than 90%); Herbicidal effect on H (barnyard grass), foliage application [7, 20]: 5 (Herbicidal rate of 90% or more (almost completely withered)); Herbicidal effect on D (Chinese sprangletop), foliage application [8, 20]: 0 (Herbicidal rate of 5% or less (almost no effect)); Herbicidal effect on E (rice flat sedge), foliage application [9, 20]: 4 (Herbicidal rate of 70% or more and less than 90%) |
| CCCC(=O)Oc1c(C)nn(C)c(=O)c1-c1c(-c2ccc(SC)cc2)oc2ccc(C)cc12 [9-056] | – | – | – | – | – | – | – | – | – | – | – | – | – | – | – | – | – | – | – | Herbicidal effect, A: late watergrass [1, 21]: 5 (Herbicidal rate of 90% or more (almost completely withered)); Herbicidal effect, B: Japanese bulrush [2, 21]: 4 (Herbicidal rate of 70% or more and less than 90%); Herbicidal effect, C: oval-leafed pondweed [3, 21]: 4 (Herbicidal rate of 70% or more and less than 90%); herbicidal effect grade, A: late watergrass [4, 21]: 3 (Herbicidal rate of 40% or more and less than 70%); herbicidal effect grade, B: Japanese bulrush [5, 21]: 3 (Herbicidal rate of 40% or more and less than 70%); herbicidal effect grade, C: oval-leafed pondweed [6, 21]: 4 (Herbicidal rate of 70% or more and less than 90%); Herbicidal effect on H (barnyard grass), foliage application [7, 21]: 5 (Herbicidal rate of 90% or more (almost completely withered)); Herbicidal effect on D (Chinese sprangletop), foliage application [8, 21]: 3 (Herbicidal rate of 40% or more and less than 70%); Herbicidal effect on E (rice flat sedge), foliage application [9, 21]: 4 (Herbicidal rate of 70% or more and less than 90%) |

— patent publication US20230085307A1, “PYRIDAZINONE COMPOUND AND HERBICIDE” (NISSAN CHEMICAL CORPORATION, priority 2019, published 2023)
